Laboratory results: patent publication US10905736B2, “Ezetimibe-associated ApoA-I mimetic peptides showing enhanced synergism” (The Regents of the University of California, priority 2016, dated 2021)
Entries after “also recorded” stand apart in the source; their conditions may differ.

Legend:
[1] = system: cholesterol-fed monkeys; conditions: cited from earlier work
[2] = system: mice; conditions: cited from earlier work
[3] = system: LDLR null mice; assay: Plasma lysophosphatidylcholine (LysoPC) levels in LDLR null mice fed Western diet for two weeks; assay type: in vivo, mouse; conditions: female LDLR null mice age 4-7 months, WD two weeks, Tg6F 0.06% by weight, Ezetimibe 10 mg/kg/day
Method: After feeding the diets for two weeks the mice were bled and plasma lipid levels, plasma levels of lysophosphatidylcholine (LysoPC), and plasma levels of Serum Amyloid A (SAA) were determined as described in Example 3 Methods. Panel A) Plasma total cholesterol levels. Panel B) The decrease in plasma cholesterol compared to WD for each treatment. Panel C) Plasma triglyceride levels. Panel D) The decrease in plasma triglycerides compared to WD for each treatment. Panel E) Plasma HDL-Cholesterol levels. Panel F) The Increase in plasma HDL-Cholesterol compared to WD for each treatment. Panel G) Plasma LysoPC 18:0 levels. Panel H) The decrease in plasma LysoPC 18:0 levels compared to WD for each treatment. Panel I) Plasma LysoPC 18:1 levels. Panel J) The decrease in plasma LysoPC 18:1 levels compared to WD for each treatment. Panel K) Plasma LysoPC 20:4 levels. Panel L) The decrease in plasma LysoPC 20:4 levels compared to WD for each treatment. Panel M) Plasma SAA levels. Panel N) The decrease in plasma SAA levels compared to WD for each treatment. The data shown are Mean±SEM. NS=Not significant.
In experiments in which Tg6F or EV or Ezetimibe were administered as single agents, the EV or Tg6F concentrate was added to WD at 0.06% by weight or Ezetimibe was added to WD to give a final dose of 10 mg/kg body weight/day. The EV or Tg6F concentrate or Ezetimibe was mixed into the diets as described (Chattopadhyay et al. (2015) Pharma. Res. Per. 3: e00154). In experiments in which the EV or Tg6F concentrates and Ezetimibe were both added to WD, each was added separately to WD at the same dose as used for the single agents, and each was mixed into the diet as described (Id.). […]
Plasma lipids, and serum amyloid A (SAA) levels were determined and LC-MS/MS was performed as described (Navab et al. (2012) J. Lipid Res. 53: 437-446; Chattopadhyay et al. (2016) J. Lipid Res. 57: 832-847; Chattopadhyay et al. (2015) Pharma. Res. Per. 3: e00154). […]

[4] = system: LDLR null mice; assay: Plasma Serum Amyloid A (SAA) levels in LDLR null mice fed Western diet for two weeks; assay type: in vivo, mouse; conditions: statement over the experiments of Example 3 (single agents four out of four, Combined Formulation three out four, Novel Method three out three experiments)
Method: The plasma from the mice in FIG. 1 was analyzed for SAA as described as described (see, e.g., Chattopadhyay et al. (2015) Pharma. Res. Per. 3: e00154; Chattopadhyay et al. (2016) J. Lipid. Res. 57: 832-847).
Female LDLR null mice age 5-8 months (n=20 per group) were fed standard mouse chow (Chow) or a Western diet high in cholesterol and fat (WD) or were fed WD+0.06% by weight of a freeze-dried concentrate of transgenic tomatoes expressing the apoA-I mimetic peptide 6F, which was prepared as previously described (see, e.g., Chattopadhyay et al. (2015) Pharma. Res. Per. 3: e00154; Chattopadhyay et al. (2016) J. Lipid Res. 57: 832-847; PCT Pub. Nos: WO 2013/148214 (PCT/US2013/031037), WO 2015/175968 (PCT/US2015/031134)) (Tg6F), or the mice were fed WD with Ezetimibe added to give a daily dose of 10 mg/kg body weight/day (WD+Ezetimibe), or the mice were fed WD with Tg6F added at 0.06% by weight plus Ezetimibe (each added separately to the diet) to give a daily dose of Ezetimibe of 10 mg/kg body weight; the Tg6F and Ezetimibe were mixed into WD as described previously (Chattopadhyay et al. (2016) J. Lipid. […] After feeding the diets for two weeks, the mice were bled and total plasma cholesterol levels were determined as described (Id.). […]

O=C1[C@H](CC[C@H](O)c2ccc(F)cc2)[C@@H](c2ccc(O)cc2)N1c1ccc(F)cc1 [Ezetimibe, (3R,4S)-1-(4-fluorophenyl)-3-[(3S)-3-(4-fluorophenyl)-3-hydroxypropyl]-4-(4-hydroxyphenyl)azetidin-2-one]
ED50 value (median effective dose) for inhibiting the rise in plasma cholesterol levels [1]: 0.5 µg/kg/day
ED50 value [2]: 700 µg/kg/day
plasma LysoPC 18:0 levels ([3]; FIG. 16 G-H): failed to significantly alter plasma levels of LysoPC 18:0
plasma LysoPC 18:1 levels ([3]; FIG. 16 I-J): significantly decreased plasma levels of LysoPC 18:1
plasma LysoPC 20:4 levels ([3]; FIG. 16 K-L): significantly reduced plasma levels of LysoPC 20:4
plasma SAA levels [4]: equally effective; also recorded: significantly decreased the levels
